The compounds below were run against T1, Type-1 angiotensin II receptor (Homo sapiens) (UniProt P30556) (assay: (§1) Antagonist activity at angiotensin 2 type-1 receptor (unknown origin)).
T1 sequence (whole entry): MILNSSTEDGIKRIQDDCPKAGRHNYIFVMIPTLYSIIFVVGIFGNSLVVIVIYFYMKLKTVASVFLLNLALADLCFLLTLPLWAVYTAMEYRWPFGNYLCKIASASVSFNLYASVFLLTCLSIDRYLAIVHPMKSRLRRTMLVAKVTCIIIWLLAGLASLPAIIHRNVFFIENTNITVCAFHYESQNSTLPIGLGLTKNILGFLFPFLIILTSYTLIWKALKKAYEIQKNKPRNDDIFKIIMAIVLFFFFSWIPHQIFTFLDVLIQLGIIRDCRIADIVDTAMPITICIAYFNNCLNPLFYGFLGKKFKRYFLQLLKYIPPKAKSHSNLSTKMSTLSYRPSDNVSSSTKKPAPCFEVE
For CCCCc1ncc(/C=C2/C(=O)N(CCCC)C(=O)N2Cc2ccc(-c3ccccc3)cc2)n1Cc1ccc(C(=O)OC)cc1, the pIC50 was 6.05.

Each compound was assayed against T2, Type-1 angiotensin II receptor (Homo sapiens, UniProt P30556) (assay: as §1).
T2 sequence (P30556 whole entry): T1 sequence (whole entry)
In the case of CCCCc1ncc(/C=C2/C(=O)N(CCCC)C(=O)N2Cc2ccc(Cl)cc2)n1Cc1ccc(C(=O)OC)cc1, the IC50 is reported as 17.6 nM.
CCCCc1ncc(/C=C2/C(=O)N(CCCC)C(=O)N2Cc2ccc(C)cc2)n1Cc1ccc(C(=O)OC)cc1 gave an IC50 of 34.6 nM.
Work on CCCCc1ncc(/C=C2/C(=O)N(C)C(=O)N2Cc2csc(C)n2)n1Cc1ccc(C(=O)OC)cc1 yielded an IC50 of 16.6 nM.
Compound CCCCc1ncc(/C=C2/C(=O)N(CCCC)C(=O)N2Cc2ccsc2)n1Cc1ccc(C(=O)O)cc1 has an IC50 of 0.9 nM.
With CCCCc1ncc(/C=C2/C(=O)N(CCCC)C(=O)N2Cc2ccc(-c3ccccc3)cc2)n1Cc1ccc(C(=O)OC)cc1 the IC50 was 884 nM.
Work on CCCCc1ncc(/C=C2/C(=O)NC(=O)N2CCCC)n1Cc1ccc(S(=O)(=O)NC(F)(F)F)cc1 yielded an IC50 of 3.3 nM.
With CCCCc1ncc(/C=C2/C(=O)N(CCCC)C(=O)N2Cc2ccoc2)n1Cc1ccc(C(=O)OC)cc1 the IC50 was 8.3 nM.
With CCCCc1ncc(/C=C2/C(=O)NC(=O)N2Cc2cccs2)n1Cc1ccc(C(=O)O)cc1 the IC50 was 2.3 nM.
For CCCCc1ncc(/C=C2/C(=O)N(CCCC)C(=O)N2Cc2csc(C)n2)n1Cc1ccc(C2(C(=O)O)CCCC2)cc1, the IC50 was 8 nM.
CCCCc1ncc(/C=C2/C(=O)N(CCCC)C(=O)N2Cc2c[nH]cn2)n1Cc1ccc(C(=O)OC)cc1 was tested, and the IC50 was 54.5 nM.
CCCCc1ncc(/C=C2\C(=O)NC(=O)N2CCC(C)C)n1Cc1ccc(C(=O)O)cc1 gave an IC50 of 4.9 nM.
With CCCCc1ncc(/C=C2/C(=O)N(CCCC)C(=O)N2c2ccccc2)n1Cc1ccc(C(=O)OC)cc1 the IC50 was 6.1 nM.
Compound CCCCc1ncc(/C=C2/C(=O)N(CCCC)C(=O)N2Cc2cccc(C)c2)n1Cc1ccc(C(=O)OC)cc1 has an IC50 of 18.5 nM.
CCCCc1ncc(/C=C2/C(=O)N(CCCC)C(=O)N2Cc2csc(N)n2)n1Cc1ccc(C(=O)O)cc1 was tested, and the IC50 was 0.6 nM.
Work on CCCCc1ncc(/C=C2/C(=O)NC(=O)N2CCCC)n1Cc1ccc(-c2nn[nH]n2)cc1 yielded an IC50 of 7.1 nM.
CCCCc1ncc(/C=C2/C(=O)NC(=O)N2Cc2cccs2)n1Cc1ccc(C(=O)OC)cc1 gave an IC50 of 7.1 nM.
In the case of CCCCc1ncc(/C=C2/C(=O)N(CSCC)C(=O)N2Cc2csc(C)n2)n1Cc1ccc(C(=O)OC)cc1, the IC50 is reported as 9.6 nM.
CCCCc1ncc(/C=C2\C(=O)NC(=O)N2CCCC)n1Cc1ccc(-c2nn[nH]n2)cc1 gave an IC50 of 4.2 nM.
CCCCc1ncc(/C=C2/C(=O)N(CCCO)C(=O)N2Cc2csc(C)n2)n1Cc1ccc(C(=O)OC)cc1 was tested, and the IC50 was 47.9 nM.
For CCCCc1ncc(/C=C2\C(=O)N(CCCC)C(=O)N2Cc2csc(C)n2)n1Cc1ccc(C(=O)O)cc1, the IC50 was 1.7 nM.
CCCCc1ncc(/C=C2/C(=O)N(CCCC)C(=O)N2Cc2ccc3ccccc3c2)n1Cc1ccc(C(=O)OC)cc1 showed an IC50 of 104 nM.
With CCCCc1ncc(/C=C2/C(=O)N(CCCC)C(=O)N2Cc2ccc(C(F)(F)F)cc2)n1Cc1ccc(C(=O)OC)cc1 the IC50 was 159 nM.
With CCCCc1ncc(/C=C2/C(=O)N(CCC)C(=O)N2Cc2csc(C)n2)n1Cc1ccc(C(=O)OC)cc1 the IC50 was 9 nM.
CCCCc1ncc(/C=C2/C(=O)N(CCCC)C(=O)N2Cc2cc(C)cs2)n1Cc1ccc(C(=O)O)cc1 gave an IC50 of 1.5 nM.
CCCCc1ncc(/C=C2/C(=O)N(CCCC)C(=O)N2Cc2cccs2)n1Cc1ccc(C(=O)O)cc1 gave an IC50 of 0.7 nM.
CCCCc1ncc(/C=C2/C(=O)N(CCCC)C(=O)N2Cc2ccsc2)n1Cc1ccc(C(=O)OC)cc1 gave an IC50 of 4.8 nM.
With CCCCc1ncc(/C=C2/C(=O)NC(=O)N2CCCC)n1Cc1ccc(-c2ccccc2-c2nn[nH]n2)cc1 the IC50 was 1.4 nM.
In the case of CCCCc1ncc(/C=C2/C(=O)N(CCCC)C(=O)N2Cc2ccc(N)cc2)n1Cc1ccc(C(=O)OC)cc1, the IC50 is reported as 3 nM.
Compound CCCCc1ncc(/C=C2\C(=O)N(CCCC)C(=O)N2Cc2cccs2)n1Cc1ccc(C(=O)O)cc1 has an IC50 of 0.6 nM.
CCCCc1ncc(/C=C2/C(=O)N(CCCC)C(=O)N2CCCC)n1Cc1ccc(S(=O)(=O)NC(F)(F)F)cc1 was tested, and the IC50 was 29.6 nM.
Compound CCCCc1ncc(/C=C2/C(=O)N(CCCC)C(=O)N2Cc2ccc(O)c(O)c2)n1Cc1ccc(C(=O)OC)cc1 has an IC50 of 4.9 nM.
In the case of CCCCc1ncc(/C=C2/C(=O)NC(=O)N2CCC(C)C)n1Cc1ccc(C(=O)O)cc1, the IC50 is reported as 6.6 nM.
In the case of CCCCc1ncc(/C=C2/C(=O)NC(=O)N2Cc2ccc(Cl)cc2)n1Cc1ccc(C(=O)O)cc1, the IC50 is reported as 3 nM.
CCCCc1ncc(/C=C2/C(=O)N(CCCC)C(=O)N2Cc2ccc(C#N)cc2)n1Cc1ccc(C(=O)OC)cc1 gave an IC50 of 11.1 nM.
In the case of CCCCc1ncc(/C=C2/C(=O)N(CCCC)C(=O)N2Cc2csc(C)n2)n1Cc1ccc(C(=O)OC)cc1, the IC50 is reported as 1.9 nM.
CCCCc1ncc(/C=C2/C(=O)NC(=O)N2Cc2ccccc2)n1Cc1ccc(C(=O)O)cc1 was tested, and the IC50 was 4 nM.
CCCCc1ncc(/C=C2/C(=O)N(CCCC)C(=O)N2Cc2cccc(Cl)c2)n1Cc1ccc(C(=O)OC)cc1 showed an IC50 of 117 nM.
Compound CCCCc1ncc(/C=C2/C(=O)N(CCCC(F)(F)F)C(=O)N2Cc2csc(C)n2)n1Cc1ccc(C(=O)OC)cc1 has an IC50 of 70 nM.
Compound CCCCc1ncc(/C=C2/C(=O)NC(=O)N2CCCC)n1Cc1ccc(C(=O)OC)cc1 has an IC50 of 3.5 nM.
Work on CCCCc1ncc(/C=C2/C(=O)N(CCCC)C(=O)N2Cc2ccc(C(=O)OC)s2)n1Cc1ccc(C(=O)OC)cc1 yielded an IC50 of 4.2 nM.
Work on CCCCc1ncc(/C=C2\C(=O)NC(=O)N2Cc2cccs2)n1Cc1ccc(C(=O)O)cc1 yielded an IC50 of 2.6 nM.
For CCCCc1ncc(/C=C2/C(=O)N(CCCC)C(=O)N2Cc2c[nH]c(C)n2)n1Cc1ccc(C(=O)OC)cc1, the IC50 was 245 nM.
Work on CCCCc1ncc(/C=C2\C(=O)NC(=O)N2Cc2ccccc2)n1Cc1ccc(C(=O)O)cc1 yielded an IC50 of 3.4 nM.
CCCCc1ncc(/C=C2\C(=O)N(CCCC)C(=O)N2Cc2csc(N)n2)n1Cc1ccc(C(=O)O)cc1 was tested, and the IC50 was 0.5 nM.
Compound CCCCc1ncc(/C=C2/C(=O)N(CCCC)C(=O)N2CCc2csc(Br)c2)n1Cc1ccc(C(=O)OC)cc1 has an IC50 of 25.4 nM.
CCCCc1ncc(/C=C2/C(=O)N(CCCC)C(=O)N2C=C(C)C)n1Cc1ccc(C(=O)OC)cc1 gave an IC50 of 11.1 nM.
With CCCCc1ncc(/C=C2/C(=O)N(CCCC)C(=O)N2Cc2ccc(C)s2)n1Cc1ccc(C(=O)O)cc1 the IC50 was 0.6 nM.
CCCCc1ncc(/C=C2\C(=O)NC(=O)N2CCCC)n1Cc1ccc(C2(C(=O)OC)CCCC2)cc1 was tested, and the IC50 was 2.5 nM.
In the case of CCCCc1ncc(/C=C2/C(=O)N(CCCC)C(=O)N2Cc2ccc(OC)cc2)n1Cc1ccc(C(=O)OC)cc1, the IC50 is reported as 9.8 nM.
For CCCCc1ncc(/C=C2\C(=O)N(CCCC)C(=O)N2CCCC)n1Cc1ccc(C(=O)O)cc1, the IC50 was 0.5 nM.
